Earlier results, collected in patent US8197801B2, “Use of compounds for the preservation of the human or animal body and compositions comprising same” (Arkema France, priority 2006, dated 2012).

Details: general statement

Row | SMILES | Toxicity relative to methanol and formaldehyde
1 | CCCCOCOCCCC [butylal, C4H9—(OCH2)—OC4H9] | much less toxic than methanol and formaldehyde
2 | CCOCOCC [ethylal, C2H5—(OCH2)—OC2H5] | much less toxic than methanol and formaldehyde
3 | COCOC [methylal, CH3—(OCH2)—OCH3] | much less toxic than methanol and formaldehyde
